{
  "source": "paper PMC12820960",
  "about": "“Lactucopicrin: A Sesquiterpene Lactone with Anti-Inflammatory Activity Modulates the Crosstalk between NF-kB and AHR Pathways” (Journal of Medicinal Chemistry, 2025)",
  "target": "T1, Aryl Hydrocarbon Receptor (AHR) (Homo sapiens, UniProt P35869)",
  "T1 sequence (P35869 11-848)": "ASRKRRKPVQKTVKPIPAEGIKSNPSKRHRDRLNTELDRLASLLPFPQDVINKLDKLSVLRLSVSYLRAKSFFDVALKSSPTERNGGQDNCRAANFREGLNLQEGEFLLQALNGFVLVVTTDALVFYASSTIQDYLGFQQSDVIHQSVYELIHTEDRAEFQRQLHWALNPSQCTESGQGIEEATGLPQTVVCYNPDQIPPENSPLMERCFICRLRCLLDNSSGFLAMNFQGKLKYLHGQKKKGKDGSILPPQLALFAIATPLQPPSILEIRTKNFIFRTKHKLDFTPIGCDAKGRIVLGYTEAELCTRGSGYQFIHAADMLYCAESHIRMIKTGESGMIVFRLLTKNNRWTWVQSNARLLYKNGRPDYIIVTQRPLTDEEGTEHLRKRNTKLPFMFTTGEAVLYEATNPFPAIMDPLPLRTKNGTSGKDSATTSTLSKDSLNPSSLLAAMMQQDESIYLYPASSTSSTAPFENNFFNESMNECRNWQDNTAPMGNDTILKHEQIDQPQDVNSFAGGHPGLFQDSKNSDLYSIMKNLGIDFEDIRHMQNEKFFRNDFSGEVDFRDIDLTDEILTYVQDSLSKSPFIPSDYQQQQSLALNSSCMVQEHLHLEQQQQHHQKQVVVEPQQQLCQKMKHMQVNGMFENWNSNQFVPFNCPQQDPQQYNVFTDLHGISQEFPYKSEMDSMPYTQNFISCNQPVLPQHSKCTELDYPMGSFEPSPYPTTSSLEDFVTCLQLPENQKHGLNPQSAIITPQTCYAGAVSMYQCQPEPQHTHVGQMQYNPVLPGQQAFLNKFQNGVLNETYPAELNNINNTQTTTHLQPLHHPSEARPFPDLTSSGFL",
  "test": "AHR luciferase reporter activation ([…]) in THP-1, Caco-2 and EA.hy926 cells",
  "assay_type": "cell-based",
  "data": [
    {"molecule": "O=C1/C(=C2\\Nc3ccccc3C2=O)Nc2ccccc21", "note": "[indigo]", "values": [
      {"measurement": "AHR luciferase reporter activation (1 uM) in THP-1, Caco-2 and EA.hy926 cells", "result": "AHR activation in THP-1 observed upon exposure to indigo, a known AHR agonist"}
    ]}
  ]
}
